Reference: PubChem BioAssay AID1963830 (Molecular Pharmacology Branch, DTP, NCI, 2024)

Test system: 922993-354-T-J3-PDC complex spheroid viability
Assay: Anticancer human tumor 922993-354-T-J3-PDC patient-derived endometrial carcinoma cell line growth inhibition [POLQ]
Conditions: for IC50: curve of first compound; for viability, T/C: stronger effect = lower value
How it was run: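 PDC + HUVEC + MSC complex spheroids; POLQ inhibitors ± partner drugs; top conc. at/near clinical Cmax, else 10 microM (SN-38 1 microM), half-log dilutions; 37 degrees C, 5% CO2.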

[1] = second compound 0.0316 µM, first compound 0.00316 µM
[2] = second compound 0.0316 µM, first compound 0.01 µM
[3] = second compound 0.0316 µM, first compound 0.0316 µM
[4] = second compound 0.0316 µM, first compound 0.1 µM
[5] = second compound 0.0316 µM, first compound 0.316 µM
[6] = second compound 0.0316 µM, first compound 1 µM
[7] = second compound 0.1 µM, first compound 0.00316 µM
[8] = second compound 0.1 µM, first compound 0.01 µM
[9] = second compound 0.1 µM, first compound 0.0316 µM
[10] = second compound 0.1 µM, first compound 0.1 µM
[11] = second compound 0.1 µM, first compound 0.316 µM
[12] = second compound 0.1 µM, first compound 1 µM
[13] = second compound 0.316 µM, first compound 0.00316 µM
[14] = second compound 0.316 µM, first compound 0.01 µM
[15] = second compound 0.316 µM, first compound 0.0316 µM
[16] = second compound 0.316 µM, first compound 0.1 µM
[17] = second compound 0.316 µM, first compound 0.316 µM
[18] = second compound 0.316 µM, first compound 1 µM
[19] = second compound 1 µM, first compound 0.00316 µM
[20] = second compound 1 µM, first compound 0.01 µM
[21] = second compound 1 µM, first compound 0.0316 µM
[22] = second compound 1 µM, first compound 0.1 µM
[23] = second compound 1 µM, first compound 0.316 µM
[24] = second compound 1 µM, first compound 1 µM
[25] = second compound 3.16 µM, first compound 0.00316 µM
[26] = second compound 3.16 µM, first compound 0.01 µM
[27] = second compound 3.16 µM, first compound 0.0316 µM
[28] = second compound 3.16 µM, first compound 0.1 µM
[29] = second compound 3.16 µM, first compound 0.316 µM
[30] = second compound 3.16 µM, first compound 1 µM
[31] = second compound 10 µM, first compound 0.00316 µM
[32] = second compound 10 µM, first compound 0.01 µM
[33] = second compound 10 µM, first compound 0.0316 µM
[34] = second compound 10 µM, first compound 0.1 µM
[35] = second compound 10 µM, first compound 0.316 µM
[36] = second compound 10 µM, first compound 1 µM
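Note: spheroids exposed to the agents for one week.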
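Throughout, for viability, T/C: 100% = DMSO vehicle control wells.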

`C=CCn1c(=O)c2cnc(Nc3ccc(N4CCN(C)CC4)cc3)nc2n1-c1cccc(C(C)(C)O)n1` + Cc1cccc(N(C)C(=O)C2C(O)CCN2c2nc(C)cc(C(F)(F)F)c2C#N)c1 gave an IC50 (second compound 0.0316 µM) greater than 1000 nM, an IC50 (second compound 0.1 µM) greater than 1000 nM and an IC50 (second compound 0.316 µM) greater than 1000 nM. The IC50 (second compound 1 µM) was greater than 1000 nM, the IC50 (second compound 3.16 µM) was greater than 1000 nM and the IC50 (second compound 10 µM) was greater than 1000 nM. It also gave a viability, T/C [1] of 101%, a viability, T/C [2] of 105% and a viability, T/C [3] of 102%. The viability, T/C [4] was 101%, the viability, T/C [5] was 105% and the viability, T/C [6] was 102%. For the same molecule, the viability, T/C [7] was 105%, the viability, T/C [8] was 104% and the viability, T/C [9] was 99.5%. The viability, T/C [10] was 103%, the viability, T/C [11] was 105% and the viability, T/C [12] was 101%. For the same molecule, the viability, T/C [13] was 103%, the viability, T/C [14] was 106% and the viability, T/C [15] was 98.1%. For the same molecule, the viability, T/C [16] was 104%, the viability, T/C [17] was 104% and the viability, T/C [18] was 103%. It also gave a viability, T/C [19] of 105%, a viability, T/C [20] of 101% and a viability, T/C [21] of 106%. The viability, T/C [22] was 99.1%, the viability, T/C [23] was 104% and the viability, T/C [24] was 104%. For the same molecule, the viability, T/C [25] was 99.9%, the viability, T/C [26] was 101% and the viability, T/C [27] was 100%. The viability, T/C [28] was 101%, the viability, T/C [29] was 104% and the viability, T/C [30] was 99%. The viability, T/C [31] was 103%, the viability, T/C [32] was 97.1% and the viability, T/C [33] was 98.5%. It also gave a viability, T/C [34] of 97.3%, a viability, T/C [35] of 103% and a viability, T/C [36] of 94.2%.

`CC[C@@]1(O)C(=O)OCc2c1cc1n(c2=O)Cc2cc3c(CN(C)C)c(O)ccc3nc2-1` + Cc1cccc(N(C)C(=O)C2C(O)CCN2c2nc(C)cc(C(F)(F)F)c2C#N)c1 showed an IC50 (second compound 0.0316 µM) of 90.6 nM, an IC50 (second compound 0.1 µM) greater than 100 nM and an IC50 (second compound 0.316 µM) greater than 100 nM. For the same molecule, the IC50 (second compound 1 µM) was greater than 100 nM, the IC50 (second compound 3.16 µM) was greater than 100 nM and the IC50 (second compound 10 µM) was 48.5 nM. It also gave a viability, T/C (second compound 0.0316 µM, first compound 0.000316 µM) of 108%, a viability, T/C (second compound 0.0316 µM, first compound 0.001 µM) of 100% and a viability, T/C [1] of 104%. The viability, T/C [2] was 98.6%, the viability, T/C [3] was 88.2% and the viability, T/C [4] was 46.3%. The viability, T/C (second compound 0.1 µM, first compound 0.000316 µM) was 109%, the viability, T/C (second compound 0.1 µM, first compound 0.001 µM) was 101% and the viability, T/C [7] was 103%. It also gave a viability, T/C [8] of 102%, a viability, T/C [9] of 90% and a viability, T/C [10] of 65.5%. The viability, T/C (second compound 0.316 µM, first compound 0.000316 µM) was 110%, the viability, T/C (second compound 0.316 µM, first compound 0.001 µM) was 104% and the viability, T/C [13] was 94.9%. For the same molecule, the viability, T/C [14] was 102%, the viability, T/C [15] was 87% and the viability, T/C [16] was 59.1%. It also gave a viability, T/C (second compound 1 µM, first compound 0.000316 µM) of 104%, a viability, T/C (second compound 1 µM, first compound 0.001 µM) of 99.5% and a viability, T/C [19] of 104%. For the same molecule, the viability, T/C [20] was 99.7%, the viability, T/C [21] was 86% and the viability, T/C [22] was 57.3%. The viability, T/C (second compound 3.16 µM, first compound 0.000316 µM) was 108%, the viability, T/C (second compound 3.16 µM, first compound 0.001 µM) was 102% and the viability, T/C [25] was 94.1%. The viability, T/C [26] was 93%, the viability, T/C [27] was 77.1% and the viability, T/C [28] was 49.9%. It also gave a viability, T/C (second compound 10 µM, first compound 0.000316 µM) of 101%, a viability, T/C (second compound 10 µM, first compound 0.001 µM) of 99.2% and a viability, T/C [31] of 99.2%. It also gave a viability, T/C [32] of 79.1%, a viability, T/C [33] of 68.3% and a viability, T/C [34] of 23.7%.

Molecule `CCc1c2c(nc3ccc(O)cc13)-c1cc3c(c(=O)n1C2)COC(=O)[C@]3(O)CC` + Cc1cccc(N(C)C(=O)C2C(O)CCN2c2nc(C)cc(C(F)(F)F)c2C#N)c1 has an IC50 (second compound 0.0316 µM) of 11.6 nM, an IC50 (second compound 0.1 µM) of 14.3 nM and an IC50 (second compound 0.316 µM) of 14.2 nM. For the same molecule, the IC50 (second compound 1 µM) was 17 nM, the IC50 (second compound 3.16 µM) was 13 nM and the IC50 (second compound 10 µM) was 6.84 nM. For the same molecule, the viability, T/C [1] was 89.5%, the viability, T/C [2] was 55% and the viability, T/C [3] was 15.1%. The viability, T/C [4] was 12.8%, the viability, T/C [5] was 12.9% and the viability, T/C [6] was 15%. The viability, T/C [7] was 91.8%, the viability, T/C [8] was 63.5% and the viability, T/C [9] was 20.2%. For the same molecule, the viability, T/C [10] was 11.3%, the viability, T/C [11] was 12.8% and the viability, T/C [12] was 16.3%. It also gave a viability, T/C [13] of 100%, a viability, T/C [14] of 63.4% and a viability, T/C [15] of 19.7%. For the same molecule, the viability, T/C [16] was 11.9%, the viability, T/C [17] was 12.4% and the viability, T/C [18] was 17.1%. It also gave a viability, T/C [19] of 100%, a viability, T/C [20] of 72.8% and a viability, T/C [21] of 23.5%. The viability, T/C [22] was 10.3%, the viability, T/C [23] was 12.4% and the viability, T/C [24] was 15.3%. It also gave a viability, T/C [25] of 90.9%, a viability, T/C [26] of 58.3% and a viability, T/C [27] of 21.7%. The viability, T/C [28] was 9.8%, the viability, T/C [29] was 12.3% and the viability, T/C [30] was 17.4%. The viability, T/C [31] was 82.3%, the viability, T/C [32] was 34.1% and the viability, T/C [33] was 10.5%. For the same molecule, the viability, T/C [34] was 10%, the viability, T/C [35] was 13.9% and the viability, T/C [36] was 17.7%.

Molecule `O=C(c1cc(Cc2n[nH]c(=O)c3ccccc23)ccc1F)N1CCN(C(=O)C2CC2)CC1` + Cc1cccc(N(C)C(=O)C2C(O)CCN2c2nc(C)cc(C(F)(F)F)c2C#N)c1 has an IC50 (second compound 0.0316 µM) greater than 10000 nM, an IC50 (second compound 0.1 µM) greater than 10000 nM and an IC50 (second compound 0.316 µM) greater than 10000 nM. The IC50 (second compound 1 µM) was greater than 10000 nM, the IC50 (second compound 3.16 µM) was greater than 10000 nM and the IC50 (second compound 10 µM) was greater than 10000 nM. It also gave a viability, T/C [3] of 104%, a viability, T/C [4] of 103% and a viability, T/C [5] of 101%. For the same molecule, the viability, T/C [6] was 113%, the viability, T/C (second compound 0.0316 µM, first compound 3.16 µM) was 99.2% and the viability, T/C (second compound 0.0316 µM, first compound 10 µM) was 92.4%. For the same molecule, the viability, T/C [9] was 111%, the viability, T/C [10] was 103% and the viability, T/C [11] was 111%. It also gave a viability, T/C [12] of 102%, a viability, T/C (second compound 0.1 µM, first compound 3.16 µM) of 103% and a viability, T/C (second compound 0.1 µM, first compound 10 µM) of 109%. The viability, T/C [15] was 113%, the viability, T/C [16] was 108% and the viability, T/C [17] was 104%. The viability, T/C [18] was 112%, the viability, T/C (second compound 0.316 µM, first compound 3.16 µM) was 92.9% and the viability, T/C (second compound 0.316 µM, first compound 10 µM) was 103%. It also gave a viability, T/C [21] of 96.4%, a viability, T/C [22] of 108% and a viability, T/C [23] of 106%. The viability, T/C [24] was 107%, the viability, T/C (second compound 1 µM, first compound 3.16 µM) was 99.1% and the viability, T/C (second compound 1 µM, first compound 10 µM) was 109%. It also gave a viability, T/C [27] of 98.3%, a viability, T/C [28] of 107% and a viability, T/C [29] of 95.3%. For the same molecule, the viability, T/C [30] was 94.7%, the viability, T/C (second compound 3.16 µM, first compound 3.16 µM) was 109% and the viability, T/C (second compound 3.16 µM, first compound 10 µM) was 106%. For the same molecule, the viability, T/C [33] was 100%, the viability, T/C [34] was 97.7% and the viability, T/C [35] was 112%. For the same molecule, the viability, T/C [36] was 104%, the viability, T/C (second compound 10 µM, first compound 3.16 µM) was 104% and the viability, T/C (second compound 10 µM, first compound 10 µM) was 103%.
